Measurements: PubChem BioAssay AID244 (DTP/NCI, 2004)
Several values for one entry are separate records, joined by “and”; a condition that tells them apart may be missing. Identical values can stand only once. Results filed as inconclusive are left out.

Test system: CD2F1 mice, Lymphoma 8 ip, survival T/C
Assay: NCI In Vivo Anticancer Drug Screen. Data for tumor model Lymphoma 8 (intraperitoneal) in CD2F1 (CDF1) mice
Details: higher = longer survival
Method: The antitumor activity of compounds was measured in mice bearing transplantable tumors. Survival or tumor size were measured and the results are expressed as the measurement made in the treated group (T) divided by the measurement made in the vehicle treated control group (C). The tumor model used in this assay is Lymphoma 8 (intraperitoneal) in CD2F1 (CDF1) mice

[1] = endpoint: median survival time, dose: 12.5 mg/kg/injection, schedule: Q01DX001 (ip), vehicle: saline
[2] = endpoint: median survival time, dose: 12.5 mg/kg/injection, schedule: Q01DX005 (ip), vehicle: saline
[3] = endpoint: median survival time, dose: 25.0 mg/kg/injection, schedule: Q01DX001 (ip), vehicle: saline
[4] = endpoint: median survival time, dose: 25.0 mg/kg/injection, schedule: Q01DX005 (ip), vehicle: saline
[5] = endpoint: median survival time, dose: 50.0 mg/kg/injection, schedule: Q01DX005 (ip), vehicle: saline
[6] = endpoint: survival time, mean or median, dose: 8.0 mg/kg/injection, schedule: Q01DX010 (ip), vehicle: saline
[7] = endpoint: survival time, mean or median, dose: 16.0 mg/kg/injection, schedule: Q01DX010 (ip), vehicle: saline

NC(CC(=O)CCl)C(=O)O (stereo not drawn)
T/C (endpoint: median survival time, dose: 1.6 mg/kg/injection, schedule: Q01DX005 (ip), vehicle: saline): 100 % of control | T/C (endpoint: median survival time, dose: 3.13 mg/kg/injection, schedule: Q01DX005 (ip), vehicle: saline): 92 % of control and 96 % of control and 108 % of control | T/C (endpoint: median survival time, dose: 6.25 mg/kg/injection, schedule: Q01DX005 (ip), vehicle: saline): 100 % of control and 103 % of control and 108 % of control | T/C [1]: 100 % of control | T/C [2]: 100 % of control and 103 % of control and 107 % of control | T/C [3]: 100 % of control | T/C [4]: 111 % of control and 114 % of control and 120 % of control | T/C (endpoint: median survival time, dose: 50.0 mg/kg/injection, schedule: Q01DX001 (ip), vehicle: saline): 108 % of control | T/C [5]: 37 % of control | T/C (endpoint: median survival time, dose: 100.0 mg/kg/injection, schedule: Q01DX001 (ip), vehicle: saline): 91 % of control

CC[C@H]1CN2CCc3cc(OC)c(OC)cc3[C@@H]2C[C@@H]1C[C@H]1NCCc2cc(OC)c(OC)cc21
T/C (endpoint: median survival time, dose: 1.87 mg/kg/injection, schedule: Q04DX003 (ip), vehicle: saline): 107 % of control | T/C (endpoint: median survival time, dose: 2.5 mg/kg/injection, schedule: Q04DX003 (ip), vehicle: saline): 103 % of control | T/C (endpoint: median survival time, dose: 3.7 mg/kg/injection, schedule: Q04DX003 (ip), vehicle: water): 107 % of control | T/C (endpoint: median survival time, dose: 3.75 mg/kg/injection, schedule: Q04DX003 (ip), vehicle: saline): 111 % of control | T/C (endpoint: median survival time, dose: 5.0 mg/kg/injection, schedule: Q04DX003 (ip), vehicle: saline): 100 % of control | T/C (endpoint: median survival time, dose: 7.5 mg/kg/injection, schedule: Q04DX003 (ip), vehicle: saline): 111 % of control | T/C (endpoint: median survival time, dose: 7.5 mg/kg/injection, schedule: Q04DX003 (ip), vehicle: water): 107 % of control | T/C (endpoint: median survival time, dose: 10.0 mg/kg/injection, schedule: Q04DX003 (ip), vehicle: saline): 100 % of control | T/C (endpoint: median survival time, dose: 15.0 mg/kg/injection, schedule: Q04DX003 (ip), vehicle: saline): 118 % of control | T/C (endpoint: median survival time, dose: 15.0 mg/kg/injection, schedule: Q04DX003 (ip), vehicle: water): 107 % of control | T/C (endpoint: median survival time, dose: 20.0 mg/kg/injection, schedule: Q04DX003 (ip), vehicle: saline): 103 % of control

CNC(=O)CC(N)C(=O)O (stereo not drawn)
T/C (endpoint: median survival time, dose: 75.0 mg/kg/injection, schedule: Q01DX005 (ip), vehicle: saline): 96 % of control and 102 % of control | T/C (endpoint: median survival time, dose: 150.0 mg/kg/injection, schedule: Q01DX005 (ip), vehicle: saline): 107 % of control and 113 % of control | T/C (endpoint: median survival time, dose: 300.0 mg/kg/injection, schedule: Q01DX005 (ip), vehicle: saline): 93 % of control and 113 % of control | T/C (endpoint: median survival time, dose: 600.0 mg/kg/injection, schedule: Q01DX005 (ip), vehicle: saline): 95 % of control and 114 % of control | T/C (endpoint: median survival time, dose: 1200.0 mg/kg/injection, schedule: Q01DX005 (ip), vehicle: saline): 102 % of control

CN(Cc1cnc2nc(N)nc(N)c2n1)c1ccc(C(=O)N[C@@H](CCC(=O)O)C(=O)O)cc1
T/C (endpoint: median survival time, dose: 0.75 mg/kg/injection, schedule: Q01DX005 (ip), vehicle: saline): 188 % of control and 195 % of control | T/C (endpoint: median survival time, dose: 1.5 mg/kg/injection, schedule: Q01DX005 (ip), vehicle: saline): 161 % of control and 172 % of control | T/C (endpoint: median survival time, dose: 3.0 mg/kg/injection, schedule: Q01DX005 (ip), vehicle: saline): 53 % of control

CC[C@]1(O)C[C@H]2CN(CCc3c([nH]c4ccccc34)[C@@](C(=O)OC)(c3cc4c(cc3OC)N(C=O)[C@H]3[C@@](O)(C(=O)OC)[C@H](OC(C)=O)[C@]5(CC)C=CCN6CC[C@]43[C@@H]65)C2)C1
T/C (endpoint: median survival time, dose: 0.03 mg/kg/injection, schedule: Q01DX005 (ip), vehicle: saline): 96 % of control and 104 % of control and 109 % of control | T/C (endpoint: median survival time, dose: 0.06 mg/kg/injection, schedule: Q01DX005 (ip), vehicle: saline): 100 % of control and 103 % of control and 105 % of control | T/C (endpoint: median survival time, dose: 0.12 mg/kg/injection, schedule: Q01DX005 (ip), vehicle: saline): 115 % of control and 118 % of control | T/C (endpoint: median survival time, dose: 0.13 mg/kg/injection, schedule: Q01DX005 (ip), vehicle: saline): 116 % of control

NC(=O)OCC(N)C(=O)O (stereo not drawn)
T/C [5]: 99 % of control and 100 % of control | T/C (endpoint: median survival time, dose: 100.0 mg/kg/injection, schedule: Q01DX005 (ip), vehicle: saline): 100 % of control | T/C (endpoint: median survival time, dose: 200.0 mg/kg/injection, schedule: Q01DX005 (ip), vehicle: saline): 88 % of control | T/C (endpoint: median survival time, dose: 400.0 mg/kg/injection, schedule: Q01DX005 (ip), vehicle: saline): 92 % of control and 94 % of control

C[C@]12C=CC(=O)C=C1CC[C@@H]1[C@@H]2C(=O)C[C@@]2(C)[C@H]1CC[C@]2(O)C(=O)CO
T/C (endpoint: median survival time, dose: 12.5 mg/kg/injection, schedule: Q01DX005 (sc), vehicle: steriod suspending solution): 105 % of control and 107 % of control and 108 % of control | T/C (endpoint: median survival time, dose: 25.0 mg/kg/injection, schedule: Q01DX005 (sc), vehicle: steriod suspending solution): 96 % of control and 104 % of control and 108 % of control | T/C (endpoint: median survival time, dose: 50.0 mg/kg/injection, schedule: Q01DX005 (sc), vehicle: steriod suspending solution): 96 % of control and 99 % of control and 100 % of control | T/C (endpoint: median survival time, dose: 100.0 mg/kg/injection, schedule: Q01DX005 (sc), vehicle: steriod suspending solution): 100 % of control and 103 % of control and 104 % of control | T/C (endpoint: median survival time, dose: 200.0 mg/kg/injection, schedule: Q01DX005 (sc), vehicle: steriod suspending solution): 111 % of control and 112 % of control

N=[N+]=CC(=O)CCC(NC(=O)C(CCC(=O)C=[N+]=N)NC(=O)CCC(N)C(=O)O)C(=O)O (stereo not drawn)
T/C (endpoint: median survival time, dose: 0.31 mg/kg/injection, schedule: Q04DX002 (ip), vehicle: saline): 111 % of control | T/C (endpoint: median survival time, dose: 0.63 mg/kg/injection, schedule: Q04DX002 (ip), vehicle: saline): 107 % of control | T/C (endpoint: median survival time, dose: 1.25 mg/kg/injection, schedule: Q04DX002 (ip), vehicle: saline): 115 % of control | T/C (endpoint: median survival time, dose: 2.5 mg/kg/injection, schedule: Q01DX006 (ip), vehicle: saline): 121 % of control | T/C (endpoint: median survival time, dose: 10.0 mg/kg/injection, schedule: Q01DX006 (ip), vehicle: saline): 121 % of control | T/C (endpoint: median survival time, dose: 10.0 mg/kg/injection, schedule: Q04DX002 (ip), vehicle: saline): 169 % of control | T/C (endpoint: median survival time, dose: 20.0 mg/kg/injection, schedule: Q01DX001 (ip), vehicle: saline): 107 % of control | T/C (endpoint: median survival time, dose: 20.0 mg/kg/injection, schedule: Q04DX002 (ip), vehicle: saline): 153 % of control | T/C (endpoint: median survival time, dose: 40.0 mg/kg/injection, schedule: Q04DX002 (ip), vehicle: saline): 180 % of control | T/C (endpoint: median survival time, dose: 40.0 mg/kg/injection, schedule: Q04DX003 (ip), vehicle: saline): 169 % of control | T/C (endpoint: median survival time, dose: 60.0 mg/kg/injection, schedule: Q01DX001 (ip), vehicle: saline): 107 % of control | T/C (endpoint: median survival time, dose: 60.0 mg/kg/injection, schedule: Q04DX002 (ip), vehicle: saline): 180 % of control | T/C (endpoint: median survival time, dose: 60.0 mg/kg/injection, schedule: Q04DX003 (ip), vehicle: saline): 176 % of control | T/C (endpoint: median survival time, dose: 80.0 mg/kg/injection, schedule: Q01DX006 (ip), vehicle: saline): 171 % of control | T/C (endpoint: median survival time, dose: 80.0 mg/kg/injection, schedule: Q04DX003 (ip), vehicle: saline): 188 % of control

c1ccc(CNc2ncnc3[nH]ncc23)cc1
T/C [6]: 100 % of control | T/C [7]: 95 % of control | T/C (endpoint: survival time, mean or median, dose: 32.0 mg/kg/injection, schedule: Q01DX010 (ip), vehicle: saline): 95 % of control and 100 % of control | T/C (endpoint: survival time, mean or median, dose: 64.0 mg/kg/injection, schedule: Q01DX010 (ip), vehicle: saline): 90 % of control

O=c1[nH]c(=O)n(C2CC(O)C(CO)O2)cc1F (stereo not drawn)
T/C (endpoint: survival time, mean or median, dose: 5.0 mg/kg/injection, schedule: Q01DX010 (ip), vehicle: saline): 104 % of control | T/C (endpoint: survival time, mean or median, dose: 10.0 mg/kg/injection, schedule: Q01DX010 (ip), vehicle: saline): 109 % of control | T/C (endpoint: survival time, mean or median, dose: 20.0 mg/kg/injection, schedule: Q01DX010 (ip), vehicle: saline): 113 % of control

O=C1C=CC(=O)N1
T/C (endpoint: median survival time, dose: 0.25 mg/kg/injection, schedule: Q01DX009 (ip), vehicle: saline): 98 % of control and 109 % of control | T/C (endpoint: median survival time, dose: 0.5 mg/kg/injection, schedule: Q01DX009 (ip), vehicle: saline): 100 % of control and 102 % of control | T/C (endpoint: median survival time, dose: 1.0 mg/kg/injection, schedule: Q01DX009 (ip), vehicle: saline): 95 % of control and 102 % of control | T/C (endpoint: median survival time, dose: 2.0 mg/kg/injection, schedule: Q01DX009 (ip), vehicle: saline): 94 % of control and 95 % of control

O=c1[nH]cc(F)c(=O)[nH]1
T/C (endpoint: median survival time, dose: 13.0 mg/kg/injection, schedule: Q04DX003 (ip), vehicle: saline): 110 % of control | T/C (endpoint: median survival time, dose: 21.8 mg/kg/injection, schedule: Q04DX003 (ip), vehicle: saline): 118 % of control | T/C (endpoint: median survival time, dose: 36.0 mg/kg/injection, schedule: Q04DX003 (ip), vehicle: saline): 114 % of control | T/C (endpoint: median survival time, dose: 100.0 mg/kg/injection, schedule: Q04DX003 (ip), vehicle: saline): 62 % of control

O=NN(CCCl)C(=O)NCCCl
T/C [1]: 153 % of control | T/C [2]: 157 % of control | T/C [3]: 261 % of control | T/C [4]: 265 % of control | T/C [5]: 69 % of control | T/C (endpoint: survival time, mean or median, dose: 6.25 mg/kg/injection, schedule: Q01DX010 (ip), vehicle: saline): 160 % of control and 165 % of control | T/C (endpoint: survival time, mean or median, dose: 12.5 mg/kg/injection, schedule: Q01DX010 (ip), vehicle: saline): 120 % of control | T/C (endpoint: survival time, mean or median, dose: 25.0 mg/kg/injection, schedule: Q01DX010 (ip), vehicle: saline): 90 % of control

Nc1nc(=S)c2ncn(C3OC(CO)C(O)C3O)c2[nH]1 (stereo not drawn)
T/C (endpoint: survival time, mean or median, dose: 4.0 mg/kg/injection, schedule: Q01DX010 (ip), vehicle: saline): 150 % of control | T/C [6]: 118 % of control | T/C [7]: 86 % of control
